The results in this text go back to a melting point compilation (Tetko et al.; mined from patent text by program, amines drawn as free bases though some values may be those of a salt).

The structures appear in SMILES notation. Bounds are passed on as bounds.

For the molecule `NCC(CN)(CN)CN`, the melting point was determined as 70 °C.

Turning to `CCOC(=O)C(=CNC1CC1)C(=O)c1c(F)cc(F)c(F)c1F`, the melting point was in the range of 107 to 108 °C.

`CCCn1c(=O)c2c(nn3cc(-c4cccc(OC)c4)[nH]c23)n(Cc2ccccc2)c1=O` gave a melting point of 249 to 250 °C.

Turning to `Cc1cccc(C)c1OC(=O)c1ccccc1C(=O)Oc1c(C)cccc1C`, the melting point fell in the range of 174 to 176 °C.

As for `COc1c(N2CC(OC)C(C)(N)C2)c(F)cc2c(=O)c(C(=O)O)cn([C@@H]3C[C@@H]3F)c12` (stereo not given in full), the melting point was 150 to 151 °C.

`CSC1C(=O)Nc2ccc(Oc3cc(F)c(C(F)(F)F)c(Cl)c3)cc21` (stereo not given) showed a melting point of 137 to 142 °C.

In turn, `CC=C1CCC2C3CCC4CC(O)CCC4(C)C3C(N)CC12C` (stereo not given) had a melting point of 118 to 125 °C.

For the molecule `O=C(O)Cc1cccc(-c2onc3ccccc23)c1`, the melting point fell in the range of 143 to 145 °C.

Molecule `COCN(c1cccc2cc(C(=O)O)n(COC)c12)S(=O)(=O)c1cccs1` registered a melting point of 183 to 184 °C.

In the case of `N#Cc1nn(-c2c(Cl)cc(C(F)(F)F)cc2Cl)c(F)c1S(=O)(=O)C(F)(F)F`, the melting point was 95 to 98 °C.

In the case of `COc1ccc2c(c1)c(CC(=O)O)c(C)n2-c1nc(SC)nc2ccccc12`, the melting point fell in the range of 175 to 178 °C.

`O=C1c2cc(F)ccc2-n2c1nc1ccccc1c2=O` displayed a melting point of 273 to 276 °C.

`N#Cc1cnc2cc(F)c(O)cc2c1Cl`: the melting point was above 250 °C.

`CCOc1cc(-c2cc(C(F)F)n3ncc(C(=O)Nc4cccc(S(=O)(=O)N5CCOCC5)c4)c3n2)ccc1C(F)(F)F` yielded a melting point of 231 °C.

On to `Cc1nc(O)c(C)c(Cl)n1`, for which the melting point was 224 to 225 °C.

Turning to `CC(C)N(CCn1cc(C(=O)NCc2ccc(Cl)cc2)c(=O)c2cc(C#CCO)ccc21)C(C)C`, the melting point is 188 to 191 °C.

`Nc1cc2c(cc1[N+](=O)[O-])CCCCC2`: the melting point was 137 to 139 °C.

In turn, `CC(C)(C)N1CC(=O)Nc2ccc(C#C[Si](C)(C)C)cc2C1=O` gave a melting point of 243 to 244 °C.

`Cc1ncc2c(n1)-c1ccc(Cl)cc1C(c1ccccc1Cl)=NC2` registered a melting point of 193 to 197 °C.

Consider `CCCCN1C(=O)NC(C(C)O)C1=O` (stereo not given), for which the melting point came out at 145 °C.

Molecule `CCOC(=O)COc1cc(C)nc2c(O)cccc12` had a melting point of 97 to 98 °C.

The molecule `Cn1c(-c2nnc3ccc(NC=O)nn23)cnc1[N+](=O)[O-]` yielded a melting point of 224 to 226 °C.

`CCCCC(=O)c1c(-c2ccc3c(Br)c(OCC(=O)OCC)ccc3c2)oc2ccc(Cl)cc12` had a melting point of 88 to 91 °C.

Turning to `Cc1ccc(S(=O)(=O)N2CC3=C(C2)C(Cc2ccccc2)NCC3)cc1` (stereo not given), the melting point is 196 °C.

The molecule `Cc1ccc(C(=O)NC(NC(=NC#N)Nc2cccnc2)C(C)(C)C)cc1` (single isomer, unassigned; (+)) yielded a melting point of 188 to 189 °C.

As for `Cn1cc(-c2ccccc2)c(=O)c(-c2cccc(S(C)=O)c2)c1` (stereo not given), the melting point was in the range of 161 to 164 °C.

Molecule `Cc1cccc(-c2n[nH]cc2-c2ccc(F)c(-c3cnn(C)c3)c2)n1` displayed a melting point of 155 to 156 °C.

The molecule `CCCC1CCC(c2ccc(-c3ccc(N=C=S)cc3)cc2)CC1` (stereo not given) showed a melting point of 149 °C.

`O=Cc1ccccc1-c1nnn[nH]1` came in with a melting point of 130 °C.

Regarding `CCCCCC#CCC(Cc1cccnc1)(C(=O)NO)S(=O)(=O)c1ccc(OC)cc1` (stereo not given), the melting point is 146 °C.

With `O=[N+]([O-])c1cnc2cc(Cl)ccc2c1O`, the melting point was above 300 °C.

Consider `c1ccc(Cc2nnn[nH]2)c(COc2ccc3oc(-c4nc5c(s4)NCCCC5)cc3c2)c1`, for which the melting point was 110 to 118 °C.

Turning to `CCOC(=O)CC(=O)c1c(F)cc(Br)cc1F`, the melting point is 49 to 52 °C.

`O=C(NCc1cccc(-c2nc(=O)c3ccccc3s2)n1)c1ccccc1`: the melting point was 214 to 215 °C.

As for `COC(=O)C1Cc2ccccc2N1c1ncnc2cc(OC)c(OC)cc12` (stereo not given), the melting point was in the range of 186 to 190 °C.

As usually defined, the melting point is the temperature, or range, at which the solid turns liquid.
